Test results taken from article PMC5626781, “A Potent Tartrate Resistant Acid Phosphatase Inhibitor to Study the Function of TRAP in Alveolar Macrophages” (Scientific Reports, 2017).

Legend:
RAW264.7 macrophages = assay: Live cell imaging of macrophage migration on osteopontin-coated wells; assay type: cell-based, mouse; settings: AubipyOMe 80 nM
Protocol: Briefly, RAW264.7 macrophages were plated on osteopontin-coated (10 μg/ml, R&D) Lab-tek chamber slides (Nunc, Hatfield, USA). Cells were incubated with or without RANKL (200 ng/ml) for 48 hours to induce TRAP activity or not[75], followed by labeling with carboxyfluorescein diacetate succinimidyl ester (CFSE, Invitrogen, Life Technologies Europe BV, Bleiswijk, The Netherlands) to visualize cells for live cell imaging using a confocal microscope (Solamere Nipkow Confocal Live Cell Imaging system, Solamere Technology Group, Salt lake city, USA). Cell movement was tracked overnight in the presence of 1% zymosan solution (Sigma-Aldrich), to stimulate cell movement, and with or without TRAP inhibitor AubipyOMe (80 nM). Pictures were taken every 10 min and were transformed into movies with Image J and Imaris x64 (Bitplane, Zurich, Switzerland) software.
IC50 of four independent experiments was calculated.
Transwell experiment to assess macrophage migration
Migration of RAW264.7 macrophages was assessed using a transwell-culturing system with inserts (Sigma-Aldrich) coated with osteopontin (10 µg/ml, R&D). Bovine collagen-coated inserts (Advanced Biometrix, Carlsbad, USA) were used as a matrix control. […] The number of cells migrated to the lower well, including dead cells, was calculated relative to control cells and individual experiments were done at least six times. […]

recombinant human TRAP5b = recombinant human TRAP5b (Homo sapiens, UniProt P13686); assay: TRAP activity assay (PNPP) with recombinant TRAP5b; assay type: biochemical; settings: pH 5.8, 30 min 37 °C, mean ± standard error, n = 3
Protocol: Recombinant unspecified human TRAP was purchased from R&D (Minneapolis, USA). Recombinant human TRAP5a and 5b were produced and purified according to a protocol based on several sources[70]–[72] using an ÄKTApurifier™ 10 FPLC system (GE Healthcare, Danderyd, Sweden) as previously described.
Inhibitor dilutions were prepared in acetate buffer from freshly prepared stock solutions (10 mM in DMSO). Recombinant unspecified TRAP (1.25 ng/ml, pH 4.5), TRAP5a (150 ng/mL, pH 5) or TRAP5b (150 ng/mL, pH 5.8) were incubated at 37 °C for 30 minutes with PNPP solution [10 mM PNPP, 200 mM sodium acetaat, 300 mM potassium chloride) at the indicated pH at a 1:1 ratio and increasing concentrations of NaAuCl4 (range 0–40 μM) or Au compounds (range 0–5.1 μM). To stop the reaction, 1M NaOH was added and absorption at 410 nm, with 490 nm as a reference value, was measured using a spectrophotometer.
The inhibitory effects of gold compounds were calculated as the ratio of absorbance between the treated and untreated wells. The IC50 values were calculated using nonlinear curve fitting with a variable slope in Graphpad Prism 6 (Graphpad Software, la Jolla, USA). An average IC50 of three independent experiments was calculated.

Chain of recombinant human TRAP5b (P13686 22-161 limits assumed): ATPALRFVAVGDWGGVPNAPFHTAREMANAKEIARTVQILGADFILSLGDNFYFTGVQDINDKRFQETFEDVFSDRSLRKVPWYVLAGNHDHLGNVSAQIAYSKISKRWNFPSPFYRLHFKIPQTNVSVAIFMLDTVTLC
Chain of recombinant human TRAP5b (P13686 182-325 limits assumed): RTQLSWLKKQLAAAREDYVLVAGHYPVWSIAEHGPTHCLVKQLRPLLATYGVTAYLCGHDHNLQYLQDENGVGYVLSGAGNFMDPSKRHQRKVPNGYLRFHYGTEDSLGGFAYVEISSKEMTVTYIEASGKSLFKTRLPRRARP

Structure (SMILES): COc1ccnc(-c2cc(OC)ccn2)c1.F[P-](F)(F)(F)(F)F.[Cl][Au+][Cl] [AubipyOMe, [Au(4,4′-dimethoxy-2,2′-bipyridine)Cl2][PF6]]
- migratory behavior of RANKL-pretreated macrophages, live cell tracking (RAW264.7 macrophages; RANKL 200 ng/ml 48 h): inhibited this migratory behavior
- migratory behavior of control cells, live cell tracking (RAW264.7 macrophages; no RANKL): did not affect the migratory behavior
- IC50 (recombinant human TRAP5b): 1800 ± 300 nM
